# According to US20190316085A1, “Methods Of T-Lymphocyte Expansion” (Cambridge Enterprise Limited, priority 2015, published 2019):
# Experiments:
# CD8^+ T-lymphocytes [1] = experiment: Glucose, lactate and VEGF measurements in media; type: cell-based, mouse; details: 0.5 mM, 16 hours
# Experimental: Each dot represent one donor mouse n≥16 mice. P-values are shown for each panel; one-way ANOVA for multiple comparisons (A, B and C). n.s.=non significant.
# (§1) CD8^+ T-cells were expanded for 4 days and then treated for 16 h with S-2HG octyl ester or R-2HG octyl ester. Glucose and lactate levels in culture medium were measured with a Dade-Behring Dimension RXL analyser. Changes in metabolite concentrations relative to fresh media were normalized to viable cell counts. VEGF, IL-2 and IFN-γ protein levels in media were determined using the following kits from MesoScale Discovery: K150BMC-2 for VEGF, K15048D-2 for IFN-γ and K152QQD-2 for IL-2. Values were normalized to viable cell counts.
# EG7-OVA cells = experiment: In vitro cytotoxicity assay (specific killing by OT-I CD8+ T-lymphocytes); type: cell-based, mouse; details: 0.5 mM for 24 h, 4 hours with target and control cells
# Experimental: (§2) Total splenocytes were activated for 48 h with 1000 nM SIINFEKL and then expanded for a further 4 days in the presence of IL-2 followed by treatment 0.5 mM of S-2HG-octyl R-2HG-octyl ester ester for 24 h. OT-I CD8^+ T-lymphocytes were incubated with target and control cells for 4 hours. n=3 mice per condition. […] Cells were activated for 48 h with αCD3+αCD28 antibodies and then expanded for a further 4 days in the presence of IL-2 followed by treatment with the indicated concentration of S-2HG-octyl ester or R-2HG-octyl ester for 24 hours. n≥16 mice.
# Total splenocytes from OT-I mice were activated with SIINFEKL-peptide for 48 h and expanded for a further 4 days in IL-2 containing medium. OT-I-specific CD8^+ T-cells were then treated for 24 h with or without 0.5 mM S-2HG-octyl ester or R-2HG-octyl ester and then incubated with target (EG7-OVA, CFSE-low) and control (EL4, CFSE high) cells. Specific lysis was calculated by normalization of the loss in signal of the CFSE-low population relative to the CFSE-high population after co-culture of 4 hours with the vehicle or S-2HG-octyl ester or R-2HG-octyl ester-treated OT-I-specific CD8^+ T-cells.
# CD8^+ T-lymphocytes [2] = experiment: IFN-γ and IL-2 protein in media; type: cell-based, mouse; details: 0.5 mM, 24 h
# Experimental: as §2, §1
# CD8^+ T-lymphocytes [3] = experiment: qRT-PCR of differentiation, memory and pluripotency associated genes; type: cell-based, mouse; details: 0.5 mM; for transcript levels of Eomes, acute treatment: 24 h; for expression of pluripotency associated genes (Oct3/4, Sox2, Nanog, Klf4): with IL2; for Il2 and Ifng mRNA expression: 24 h or 7 days; for Eomes expression levels after continuous treatment: 7 days
# Experimental: FIGS. 8E, 8F and 8G show expression of II2(8E), Ifng (8F), and Eomes (8G) mRNA in CD8^+ T-lymphocytes activated for 48 h with αCD3+αCD28 antibodies and then expanded for a further 2 days in the presence of IL-2. Cells were then treated for either 24 h or 7 days with or without 0.5 mM S-2HG-octyl ester or R-2HG-octyl ester. n≥4 mice per group.
# Activated CD8^+ T-lymphocytes were treated with 0.5 mM of either S-2HG-octyl ester or R-2HG-octyl ester for 1 day or 7 days in the presence of IL2. The induction seen with R-2HG-octyl ester is weaker than with S-2HG-octyl ester. Each dot represents an individual donor mouse, n=4 mice. error bars denote the s.d.
# RNA was isolated using the RNeasy kit (Qiagen). 1 μg of RNA was used for cDNA synthesis with the First-Strand Synthesis kit (Invitrogen). All samples were run in technical triplicates using a StepOnePlus system (Applied Biosystems) with SYBR green.
# CD8^+ T-lymphocytes [4] = experiment: Proliferation after activation (CFSE dilution, viable cell number); type: cell-based, mouse; details: 0.5 mM; for proliferation following activation: with IL-2
# Experimental: Data are representative of 4 mice.
# Cells were then treated with 0.5 mM S-2HG-octyl ester, 0.5 mM R-2HG-octyl ester or vehicle and counting was performed at indicated time points after initiation of treatment. n=8 mice per condition.
# Cells were counted on an ADAM-MC automated cell counter (NanoEnTek) and viability was assessed by the exclusion of propidium iodide. Cell volume was determined using a Z2 Coulter counter (Beckman Coulter).
# [5] = test system: OT-I CD8^+CD45.1^+ T-lymphocytes; experiment: In vivo memory recall experiment (adoptive transfer, vaccination); parameters: species or system mouse; details: for formation of memory cells after in vitro treatment of CD8+ T-cells: 0.5 mM, 7 days with IL-2 (FIGS. 13, 16, 17); for in vivo recall in response to vaccination: cells pre-treated 7 days with 0.5 mM, 37 days after adoptive transfer
# Experimental: FIGS. 13B and 13C show representative flow cytometry plots of (B) CD8^+CD45.1^+ (C) or Kb/SIINFEKL Pentamer^+CD45.1^+ T-lymphocytes, in the spleens of vaccinated litter mate CD45.2 mice, 37 days after adoptive transfer of SIINFEKL-activated OT-I CD8^+CD45.1^+ T-lymphocytes, expanded with 0.5 mM S-2HG-octyl ester, 0.5 mM R-2HG-octyl ester or vehicle in the presence of IL-2 for 7 days. FIGS. 13D-F show (13D) the number of recovered CD45.1^+CD8^+ T-lymphocytes per spleen and (13E) % CD45.1^+ cells of the total CD8^+ population in each spleen or (13F) number of recovered Kb/SIINFEKL Pentamer^+CD45.1^+ T-lymphocytes per spleen 7 days after vaccination (37 days after the CD8+ T-cells were transferred into the mice). n=6 mice per group and error bars denote the s.e.m.
# Total splenocytes from OT-1 CD45.1^+ mice were activated with 1000 nM SIINFEKL peptide in the presence of IL-2 and vehicle, 0.5 mM S-2HG-octyl ester or 0.5 mM R-2HG-octyl ester for 7 days. 1 million CD45^+CD8^+ cells were then injected intravenously into C57/B6 wild type CD45.2^+ host mice. 30 days later, host mice were vaccinated i.p. with SIINFEKL-loaded dendritic cells. 7 days later, spleens were harvested from host mice and the presence of CD45.1^+CD8^+ and Kb/SIINFEKL Pentamer+cells was determined by flow cytometry. Absolute numbers of cells were determined with the use of counting beads (CountBright, Life Technologies). Dendritic cells were prepared from bone marrow extracted from wild type C57/B6 mice. Bone marrow derived cells were cultured in non-TC treated petri dishes in RPMI-1640 medium containing 2 mM glutamine, 10% FBS, 25 mM HEPES, pH 7.2, 1% penicillin-streptomycin, 55 μM […] supplemented 20 ng/ml mGM-CSF (R&D Systems). After 8 days of culture, dendritic cells were activated with 1 μg/ml LPS (Sigma) for 24 h. The maturation of dendritic cells was confirmed by flow cytometry using the following markers: MHC class II-APC, CD11b-AF488, CD11c-AF488 and CD86-PE/Cy7 (Biolegend). Mature dendritic cells were then loaded with 2 μM SIINFEKL peptide at 37° C. for 1 hour. After peptide loading, dendritic cells were detached with 3 mM EDTA in PBS for 5-10 min at 37° C. and washed with PBS. For vaccination, 1 million peptide-loaded dendritic cells were injected i.p. per mouse in 100 μl PBS.
Structure (SMILES),VEGF production (CD8^+ T-lymphocytes [1]),glucose uptake (CD8^+ T-lymphocytes [1]),lactate secretion (CD8^+ T-lymphocytes [1]),lytic ability of antigen specific OT-I CD8+ T-cells (EG7-OVA cells),production of interleukin-2 (IL-2) (CD8^+ T-lymphocytes [2]),secretion of interferon-γ (IFN-γ) (CD8^+ T-lymphocytes [2]),expression of memory associated transcripts (including Ccr7) (CD8^+ T-lymphocytes [3]),"transcript levels of Eomes, acute treatment (CD8^+ T-lymphocytes [3])",induction of pluripotency associated genes compared with S-2HG-octyl ester (CD8^+ T-lymphocytes [3]; 1 day or 7 days),"expression of pluripotency associated genes (Oct3/4, Sox2, Nanog, Klf4) (CD8^+ T-lymphocytes [3]; 1 day or 7 days)",Il2 and Ifng mRNA expression (CD8^+ T-lymphocytes [3]),Eomes expression levels after continuous treatment (CD8^+ T-lymphocytes [3]),restriction in proliferation compared with S-2HG-octyl ester (CD8^+ T-lymphocytes [4]),proliferation following activation (CD8^+ T-lymphocytes [4]),formation of memory cells after in vitro treatment of CD8+ T-cells [5],in vivo recall in response to vaccination [5]
CCCCCCCCOC(=O)[C@H](O)CCC(=O)O [R-2HG-octyl ester],elevated,elevated,elevated,markedly lower,increased,decreased,increased,represses,weaker,induces the expression,mediated at the transcriptional level,higher expression levels,less pronounced,decreasing proliferation,induces the formation,enhanced in vivo recall
"CCCCCCCCOC(=O)[C@@H](O)CCC(=O)O [S-2HG-octyl ester, S-2HG octyl ester]",elevated,elevated,elevated,markedly lower,increased,decreased,increased,represses,,induces the expression,mediated at the transcriptional level,higher expression levels,,decreasing proliferation,induces the formation,enhanced in vivo recall
